US10947251B2, “Therapeutic compounds and methods of use thereof” (GENENTECH, INC., priority 2018, dated 2021)

Key:
hNav1.7 [1] = target: T1, hNav1.7 (Homo sapiens (Human), UniProt Q15858); test: Tritiated compound binding to membranes from cells heterologously expressing hNav1.7 and the β1 subunit (LBA); conditions: competitive binding vs [3H]compound, membranes with hNav1.7 and β1 subunit; read-out: Nav1.7 LBA EVO IC50
Procedure: Example 39A. Tritiated Compound Binding to Membranes Isolated from Cells that Heterologously Express hNav1.7 and the β1 Subunit
Preparation of membranes containing recombinantly expressed sodium channels: Frozen recombinant cell pellets were thawed on ice and diluted to 4 times the cell pellet weight with ice cold 50 mM Tris HCl, pH 7.4 buffer. The cell suspensions were homogenized on ice using a motorized glass dounce homogeniser. Homogenates were further diluted 8.4 times with ice cold 50 mM Tris HCl, pH 7.4 buffer and then centrifuged at 200×g at 4° C. for 15 min. The supernatants were collected and centrifuged at 10000×g at 4° C. for 50 min. The pellets were then re-suspended in 100 mM NaCl, 20 mM Tris HCl, pH 7.4 buffer containing 1% v/v protease inhibitors (Calbiochem) and re-homogenized on ice. The homogenized membranes were then processed through a syringe equipped with a 26 gauge needle. Protein concentrations were determined by Bradford Assay and the membranes were stored at −80° C.
Saturation experiments. A competitive NaV1.7 inhibitor having a methyl group was tritiated. Three tritiums were incorporated in place of methyl hydrogens to generate [^3H]compound. Binding of this radioligand was performed in 5 mL borosilicate glass test tubes at room temperature. Binding was initiated by adding membranes to increasing concentrations of [^3H]compound in 100 mM NaCl, 20 mM Tris HCl, pH 7.4 buffer containing 0.01% w/v bovine serum albumin (BSA) for 18 h. Non-specific binding was determined in the presence of 1 μM unlabeled compound. After 18 h, the reactants were filtered through GF/C glass fiber filters presoaked in 0.5% w/v polyethylene imine. Filters were washed with 15 mL ice cold 100 mM NaCl, 20 mM Tris HCl, pH7.4 buffer containing 0.25% BSA to separate bound from free ligand. [^3H]compound bound to filters was quantified by liquid scintillation counting.
Binding reactions were performed in 96-well polypropylene plates at room temperature for 18 h. In 360 μL, membranes were incubated with 100 pM [^3H]compound and increasing concentrations of Test Compound. Non-specific binding was defined in the presence of 1 μM unlabeled compound. Reactions were transferred and filtered through 96-well glass fiber/C filter plates presoaked with 0.5% polyethylene imine. The filtered reactions were washed 5 times with 200 μL ice cold buffer containing 0.25% BSA. Bound radioactivity was determined by liquid scintillation counting.
For saturation experiments, non-specific binding was subtracted from total binding to provide specific binding and these values were recalculated in terms of pmol ligand bound per mg protein. Saturation curves were constructed and dissociation constants were calculated using the single site ligand binding model: Beq=(Bmax*X)/(X+Kd), where Beq is the amount of ligand bound at equilibrium, Bmax is the maximum receptor density, Kd is the dissociation constant for the ligand, and X is the free ligand concentration. For competition studies percent inhibition was determined and IC50 values were calculated using a 4 parameter logistic model (% inhibition=(A+((B−A)/(1+((x/C)^D)))) using XLfit, where A and B are the maximal and minimum inhibition respectively, C is the IC50 concentration and D is the (Hill) slope.
Example 39B. Tritiated Compound Binding to Membranes Isolated from Cells that Heterologous Express hNav1.7 and the β1 Subunit
Following the procedure described in Example 39A, and making modifications as required to: centrifuge supernatants at 100000×g instead of 10000×g; re-suspend pellets in a buffer containing 0.01% BSA in addition to 100 mM NaCl, 20 mM Tris HCl, pH 7.4 buffer, and 1% v/v […]; and storing membranes at −80° C. in single use aliquots instead of pooled.
Saturation experiments: Following the procedure described in Example 243A, and making modifications as required to incubate [3H]compound for 3 hours instead of 18 hours. […]

hNav1.7 [2] = target: T1, hNav1.7; test: Electrophysiological assay (EP), voltage clamp on Syncropatch 384PE; type: cell-based; conditions: CHO cells expressing Nav1.7, holding potential −50 mV, 7.5 min compound incubation; read-out: EP_SP hNav1.7 EVO IC50
Source text: Example 39C. Electrophysiological Assay (EP) (In Vitro Assay)
Patch voltage clamp electrophysiology allows for the direct measurement and quantification of block of voltage-gated sodium channels (NaV's), and allows the determination of the time- and voltage-dependence of block which has been interpreted as differential binding to the resting, open, and inactivated states of the sodium channel (Hille, B., Journal of General Physiology (1977), 69: 497-515).
The following voltage clamp electrophysiology studies were performed on representative compounds using cells heterologously expressing Nav1.7 or Nav1.5 channels. cDNAs for Nav1.7 (NM_002977) and Nav1.5 (AC137587) were stably expressed in Chinese Hamstr Ovary (CHO) cells and CHL (Chinese Hamster Lung) cells respectively. Sodium currents were measured in the whole-cell configuration using Syncropatch 384PE (Nanlon Technologies, Germany). 1NPC®-384 chips with custom medium resistance and single hole mode are used. Internal solution consists of (in mM): 110 […], 10 CsCl, 20 EGTA, and 10 Hepes (pH adjusted to 7.2); and external solution contains (in mM): 60 NMDG, 80 NaCl, 4 KCl, 1 MgCl2, 2 CaCl2, 2 D-Glucose monohydrate, 10 Hepes (pH adjusted to 7.4 with NaOH).
After system flushing, testing compounds are dissolved in external solution containing 0.1% Pluronic F-127. The chip is moved into the measuring head and the instrument primes the chip with external and internal solutions. 10 l cells are added to the chip from a cell hotel, and a negative pressure of −50 mBar is applied to form a seal. Following treatment with seal enhancer solution and wash-off with external solution, negative pressure of −250 mbar is applied for 1 second to achieve the whole-cell configuration, followed by three washing steps in external solution. 20 µl of compounds is added to 40 µl in each well (1:3 dilution of compounds), and after mixing, 20 l is removed so the volume is retained at 40 ul. After approximately 13 minutes recordings, 20 µl/well of 2 uM TTX, or 333 uM Tetracaine (for Nav1.5) is added to achieve full block.
For voltage protocol, an holding potential of −50 mV is applied during the whole experiment. A depolarizing step is applied to −10 mV for 10 ms, followed by a hyperpolarization step to −150 mV for 20 ms to allow channel recovery from inactivation. A second depolarizing step is applied from −150 mV to −10 mV for 10 ms, where currents were measured to derive blocking effects of compounds. Inhibition is determined based on 7.5 min of compound incubation.

Row | SMILES | IC50 (hNav1.7 [1]) | IC50 (hNav1.7 [2])
1 | COc1cc(-c2cccc(C(F)(F)F)c2F)c(F)cc1N1C(=O)CO[C@H]2CN(S(=O)(=O)Nc3ccon3)CC[C@@H]21 [Example 12, (4aS,8aS)-1-(2,2′-difluoro-5-methoxy-3′-(trifluoromethyl)-[1,1′-biphenyl]-4-yl)-N-(isoxazol-3-yl)-2-oxohexahydro-1H-pyrido[3,4-b][1,4]oxazine-6(7H)-sulfonamide] | 131 nM | 6.83 nM
2 | COc1cc(-c2cccc(Cl)c2)c(F)cc1N1C(=O)CO[C@@H]2CN(S(=O)(=O)Nc3ccon3)CC[C@H]21 [Example 13, (4aR,8aR)-1-(3′-chloro-2-fluoro-5-methoxy-[1,1′-biphenyl]-4-yl)-N-(isoxazol-3-yl)-2-oxohexahydro-1H-pyrido[3,4-b][1,4]oxazine-6(7H)-sulfonamide] | 471 nM | 11.7 nM
3 | COc1cc(-c2cccc(Cl)c2)c(F)cc1N1C(=O)CO[C@H]2CN(S(=O)(=O)Nc3ccon3)CC[C@@H]21 [Example 14, (4aS,8aS)-1-(3′-chloro-2-fluoro-5-methoxy-[1,1′-biphenyl]-4-yl)-N-(isoxazol-3-yl)-2-oxohexahydro-1H-pyrido[3,4-b][1,4]oxazine-6(7H)-sulfonamide] | 332 nM | 7.21 nM
4 | COc1cc(-c2cccc(C(F)F)c2)c(F)cc1N1C(=O)CO[C@@H]2CN(S(=O)(=O)Nc3ccon3)CC[C@H]21 [Example 15, (4aR,8aR)-1-(3′-(difluoromethyl)-2-fluoro-5-methoxy-[1,1′-biphenyl]-4-yl)-N-(isoxazol-3-yl)-2-oxohexahydro-1H-pyrido[3,4-b][1,4]oxazine-6(7H)-sulfonamide] | 2000 nM | 46.7 nM
5 | COc1cc(-c2cccc(C(F)F)c2)c(F)cc1N1C(=O)CO[C@H]2CN(S(=O)(=O)Nc3ccon3)CC[C@@H]21 [Example 16, (4aS,8aS)-1-(3′-(difluoromethyl)-2-fluoro-5-methoxy-[1,1′-biphenyl]-4-yl)-N-(isoxazol-3-yl)-2-oxohexahydro-1H-pyrido[3,4-b][1,4]oxazine-6(7H)-sulfonamide] | 1390 nM | 49.5 nM
6 | COc1cc(-c2cccc(C(F)(F)F)c2)ccc1N1C(=O)CO[C@@H]2CN(S(=O)(=O)Nc3ccon3)CC[C@H]21 [Example 17, (4aR,8aR)-N-(isoxazol-3-yl)-1-(3-methoxy-3′-(trifluoromethyl)-[1,1′-biphenyl]-4-yl)-2-oxohexahydro-1H-pyrido[3,4-b][1,4]oxazine-6(7H)-sulfonamide] | 214 nM | 6.03 nM
7 | COc1cc(-c2cccc(C(F)(F)F)c2)ccc1N1C(=O)CO[C@H]2CN(S(=O)(=O)Nc3ccon3)CC[C@@H]21 [Example 18, (4aS,8aS)-N-(isoxazol-3-yl)-1-(3-methoxy-3′-(trifluoromethyl)-[1,1′-biphenyl]-4-yl)-2-oxohexahydro-1H-pyrido[3,4-b][1,4]oxazine-6(7H)-sulfonamide] | 346 nM | 5.86 nM
8 | COc1cc(-c2cccc(C(F)(F)F)c2)cc(F)c1N1C(=O)CO[C@@H]2CN(S(=O)(=O)Nc3ccon3)CC[C@H]21 [Example 19, (4aR,8aR)-1-(3-fluoro-5-methoxy-3′-(trifluoromethyl)-[1,1′-biphenyl]-4-yl)-N-(isoxazol-3-yl)-2-oxohexahydro-1H-pyrido[3,4-b][1,4]oxazine-6(7H)-sulfonamide] | 831 nM | 50 nM
9 | COc1cc(-c2cccc(C(F)(F)F)c2)cc(F)c1N1C(=O)CO[C@H]2CN(S(=O)(=O)Nc3ccon3)CC[C@@H]21 [Example 20, (4aS,8aS)-1-(3-fluoro-5-methoxy-3′-(trifluoromethyl)-[1,1′-biphenyl]-4-yl)-N-(isoxazol-3-yl)-2-oxohexahydro-1H-pyrido[3,4-b][1,4]oxazine-6(7H)-sulfonamidede] | 2000 nM | 39.8 nM
10 | COc1nc(-c2cccc(C(F)(F)F)c2)c(F)cc1N1C(=O)CO[C@@H]2CN(S(=O)(=O)Nc3ccon3)CC[C@H]21 [Example 21, (4aR,8aR)-1-(5-fluoro-2-methoxy-6-(3-(trifluoromethyl)phenyl)pyridin-3-yl)-N-(isoxazol-3-yl)-2-oxohexahydro-1H-pyrido[3,4-b][1,4]oxazine-6(7H)-sulfonamide] | 2000 nM | 47.5 nM
11 | COc1nc(-c2cccc(C(F)(F)F)c2)c(F)cc1N1C(=O)CO[C@H]2CN(S(=O)(=O)Nc3ccon3)CC[C@@H]21 [Example 22, (4aS,8aS)-1-(5-fluoro-2-methoxy-6-(3-(trifluoromethyl)phenyl)pyridin-3-yl)-N-(isoxazol-3-yl)-2-oxohexahydro-1H-pyrido[3,4-b][1,4]oxazine-6(7H)-sulfonamide] | 907 nM | 66.8 nM
12 | N#Cc1cc(-c2cccc(C(F)(F)F)c2)c(F)cc1N1C(=O)CO[C@@H]2CN(S(=O)(=O)Nc3ccon3)CC[C@H]21 [Example 23, (4aR,8aR)-1-(5-cyano-2-fluoro-3′-(trifluoromethyl)-[1,1′-biphenyl]-4-yl)-N-(isoxazol-3-yl)-2-oxohexahydro-1H-pyrido[3,4-b][1,4]oxazine-6(7H)-sulfonamide] | 2000 nM | 50.1 nM
13 | N#Cc1cc(-c2cccc(C(F)(F)F)c2)c(F)cc1N1C(=O)CO[C@H]2CN(S(=O)(=O)Nc3ccon3)CC[C@@H]21 [Example 24, (4aS,8aS)-1-(5-cyano-2-fluoro-3′-(trifluoromethyl)-[1,1′-biphenyl]-4-yl)-N-(isoxazol-3-yl)-2-oxohexahydro-1H-pyrido[3,4-b][1,4]oxazine-6(7H)-sulfonamide] | 2000 nM | 237 nM
